Experimental data: US12209102B2, “Heterocyclic compounds and uses thereof” (Kumquat Biosciences Inc., priority 2022, dated 2025)

Experiments:
SW620 cells = assay: Ras cellular assay, growth of cells with K-Ras G12V mutation (CellTiter-Glo); assay type: cell-based; conditions: Homo sapiens, SW-620; cell growth, Example 9, G12V mutation; read-out: IC50 against SW620 cells
Summary of the method: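 SW620 (K-Ras G12V) cells, e.g. 800/well in RPMI-1640 with 10% heat-inactivated FBS on standard or ultra-low attachment plates, were dosed the day after plating with e.g. a 10-point 3-fold series. Viability by CellTiter-Glo luminescence about 6 days later; IC50 from four-parameter fit.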

K-Ras G12V = target: T1, K-Ras G12V (Homo sapiens, UniProt P01116, G12V); assay: HTRF resonance energy transfer assay, K-Ras G12V / SOS1 interaction; assay type: biochemical; conditions: HTRF assay of Example 5; read-out: IC50 against K-Ras G12V
T1 construct: made in house; host or cells: E. coli BL21 (DE3)
Summary of the method: (§1)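 Read-out: HTRF 665/620 nm ratio (excitation 337 nm) after roughly 10 min or longer incubation, used to derive IC50. Donor anti-GST-Eu on GST-K-Ras; acceptor anti-6His-XL665 on His-hSOS1. Duplicate dose series from 10 μM down to 0.01 μM.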

K-Ras G12D = target: T2, K-Ras G12D (Homo sapiens, UniProt P01116, G12D); assay: HTRF resonance energy transfer assay, K-Ras G12D / SOS1 interaction; assay type: biochemical; conditions: HTRF assay of Example 5; read-out: IC50 against K-Ras G12D
T2 construct: made in house; host or cells: E. coli BL21 (DE3)
Summary of the method: as §1

K-Ras G12S = target: T3, K-Ras G12S (Homo sapiens, UniProt P01116, G12S); assay: HTRF resonance energy transfer assay, K-Ras G12S / SOS1 interaction; assay type: biochemical; conditions: HTRF assay of Example 5; read-out: IC50 against K-Ras G12S
T3 construct: made in house; host or cells: E. coli BL21 (DE3)
Summary of the method: as §1

K-Ras WT = target: T4, K-Ras WT (Homo sapiens, UniProt P01116); assay: HTRF resonance energy transfer assay, K-Ras WT / SOS1 interaction; assay type: biochemical; conditions: HTRF assay of Example 5; read-out: IC50 against K-Ras WT
T4 construct: made in house; host or cells: E. coli BL21 (DE3)
Summary of the method: as §1

A549 cells = assay: Ras cellular assay, growth of cells with K-Ras G12S mutation (CellTiter-Glo); assay type: cell-based; conditions: Homo sapiens, cell growth, Example 9, G12S mutation, read-out: IC50 against A549 cells
Procedure: For example, this assay can be also used to assess a selective growth inhibition of a mutant Ras protein relative to a wildtype, or relative to a different mutant Ras protein.
A549 (ATCC CCL-185) and LS123 (ATCC CCL-255) cell lines comprise a G12S mutation and can be used to assess Ras cellular signaling in vitro, e.g., in response to the compounds herein. A549 culture medium is prepared with RPMI-1640 and 10% heat-inactivated FBS. LS123 culture medium is prepared with RPMI-1640 and 10% heat-inactivated FBS. A CellTiter-Glo (CTG) luminescent based assay (Promega) is used to assess growth of the cells, as a measurement of the ability of the compounds herein to inhibit Ras signaling in the cells. The cells (e.g., 800 per well) are seeded in their respective culture medium in standard tissue culture-treated 384-well format plates (Falcon #08-772-116) or ultra-low attachment surface 384-well format plates (S-Bio #MS-9384WZ). The day after plating, cells are treated with a dilution series (e.g., a 10 point 3-fold dilution series) of the compounds herein (e.g., approximately 40 μL final volume per well). Cell viability can be monitored (e.g., approximately 6 days later) according to the manufacturer's recommended instructions, where the CellTiter-Glo reagent is added (e.g., approximately 10 μL), vigorously mixed, covered, and placed on a plate shaker (e.g., approximately for 20 min) to ensure sufficient cell lysis prior to assessment of luminescent signal. The IC50 values are determined using the four parameter fit. The resulting IC50 value is a measurement of the ability of the compounds herein to reduce cell growth of Ras-driven cells (e.g., tumor cell lines) in vitro and/or in vivo.

T2 sequence (P01116 1-188 isoform P01116-2 G12D): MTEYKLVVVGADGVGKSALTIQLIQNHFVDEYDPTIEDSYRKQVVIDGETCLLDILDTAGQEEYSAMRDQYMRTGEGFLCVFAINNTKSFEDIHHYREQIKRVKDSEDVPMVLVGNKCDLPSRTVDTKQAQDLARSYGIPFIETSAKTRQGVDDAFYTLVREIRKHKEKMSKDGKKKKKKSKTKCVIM
T1 sequence (P01116 1-188 isoform P01116-2 G12V): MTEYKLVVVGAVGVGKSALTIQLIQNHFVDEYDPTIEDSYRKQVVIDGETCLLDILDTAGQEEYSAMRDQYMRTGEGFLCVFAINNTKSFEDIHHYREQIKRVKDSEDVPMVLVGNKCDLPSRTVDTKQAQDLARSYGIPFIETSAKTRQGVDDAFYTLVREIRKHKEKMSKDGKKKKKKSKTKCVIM
T3 sequence (P01116 1-188 isoform P01116-2 G12S): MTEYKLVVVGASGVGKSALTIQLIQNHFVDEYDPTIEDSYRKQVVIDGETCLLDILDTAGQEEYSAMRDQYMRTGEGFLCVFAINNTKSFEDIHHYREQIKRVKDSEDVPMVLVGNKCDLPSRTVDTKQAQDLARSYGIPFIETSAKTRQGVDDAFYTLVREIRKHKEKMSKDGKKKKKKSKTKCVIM
T4 sequence (P01116 1-188 isoform P01116-2): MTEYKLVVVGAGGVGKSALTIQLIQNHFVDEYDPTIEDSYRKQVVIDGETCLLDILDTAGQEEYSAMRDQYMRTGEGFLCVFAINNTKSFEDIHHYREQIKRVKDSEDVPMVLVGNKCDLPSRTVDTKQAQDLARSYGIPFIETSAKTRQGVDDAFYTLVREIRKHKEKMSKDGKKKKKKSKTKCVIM

Structure (SMILES)	IC50 (SW620 cells)	IC50 (K-Ras G12V)	IC50 (K-Ras G12D)	IC50 (K-Ras G12S)	IC50 (K-Ras WT)	IC50 (A549 cells)
CC1Oc2c(Cl)c(-c3ccc(F)c4sc(N)c(C#N)c34)c(F)c3nc(OC[C@@]45CCCN4C[C@H](F)C5)nc(c23)N(CC(F)F)C1C(C)(C)O (stereo partly drawn) [Compound 655, 2-amino-4-(8-chloro-4-(2,2-difluoroethyl)-10-fluoro-2-(((2R,7aS)-2-fluorotetrahydro-1H-pyrrolizin-7a(5H)-yl)methoxy)-5-(2-hydroxypropan-2-yl)-6-methyl-5,6-dihydro-4H-[1,4]oxazepino[5,6,7-de]quinazolin-9-yl)-7-fluorobenzo[b]thiophene-3-carbonitrile]	< 5 µM	< 100 nM	< 100 nM	< 100 nM	< 100 nM	< 5 µM
N#CCCCN1CCOc2c(Cl)c(-c3ccc(F)c4sc(N)c(C#N)c34)c(F)c3nc(OC[C@@]45CCCN4C[C@H](F)C5)nc1c23 [Compound 837, 2-amino-4-(8-chloro-4-(3-cyanopropyl)-10-fluoro-2-(((2R,7aS)-2-fluorotetrahydro-1H-pyrrolizin-7a(5H)-yl)methoxy)-5,6-dihydro-4H-[1,4]oxazepino[5,6,7-de]quinazolin-9-yl)-7-fluorobenzo[b]thiophene-3-carbonitrile]	< 5 µM	< 100 nM	< 100 nM	< 100 nM	< 100 nM	< 5 µM
N#Cc1c(N)sc2c(F)ccc(-c3c(Cl)c4c5c(nc(OC[C@@]67CCCN6C[C@H](F)C7)nc5c3F)N(C3CCC(NC(=O)[C@@H]5N[C@H]5C5CC5)C3)CCO4)c12 (stereo partly drawn) [Compound 920, (2R,3S)—N-(3-(9-(2-amino-3-cyano-7-fluorobenzo[b]thiophen-4-yl)-8-chloro-10-fluoro-2-(((2R,7aS)-2-fluorotetrahydro-1H-pyrrolizin-7a(5H)-yl)methoxy)-5,6-dihydro-4H-[1,4]oxazepino[5,6,7-de]quinazolin-4-yl)cyclopentyl)-3-cyclopropylaziridine-2-carboxamide]	< 5 µM	< 100 nM	< 100 nM	< 100 nM	< 100 nM	< 5 µM
N#CCC(=O)N1CCC(N2CCOc3c(Cl)c(-c4ccc(F)c5sc(N)c(C#N)c45)c(F)c4nc(OC[C@@]56CCCN5C[C@H](F)C6)nc2c34)C1 (stereo partly drawn) [Compound 626, 2-amino-4-(8-chloro-4-(1-(2-cyanoacetyl)pyrrolidin-3-yl)-10-fluoro-2-(((2R,7aS)-2-fluorotetrahydro-1H-pyrrolizin-7a(5H)-yl)methoxy)-5,6-dihydro-4H-[1,4]oxazepino[5,6,7-de]quinazolin-9-yl)-7-fluorobenzo[b]thiophene-3-carbonitrile]	< 5 µM	< 100 nM	< 100 nM	< 100 nM	< 100 nM	< 5 µM
C[C@H]1CN(C23CC(C2)C3)c2nc(OC[C@@]34CCCN3C[C@H](F)C4)nc3c(F)c(-c4ccc(F)c5sc(N)c(C#N)c45)c(Cl)c(c23)O1 [Compound 687, 2-amino-4-((6S)-4-(bicyclo[1.1.1]pentan-1-yl)-8-chloro-10-fluoro-2-(((2R,7aS)-2-fluorotetrahydro-1H-pyrrolizin-7a(5H)-yl)methoxy)-6-methyl-5,6-dihydro-4H-[1,4]oxazepino[5,6,7-de]quinazolin-9-yl)-7-fluorobenzo[b]thiophene-3-carbonitrile]	< 5 µM		< 100 nM	< 100 nM	< 100 nM	< 5 µM

Next, values leading:

IC50 (SW620 cells)	IC50 (K-Ras G12V)	IC50 (K-Ras G12D)	IC50 (K-Ras G12S)	IC50 (K-Ras WT)	IC50 (A549 cells)	Structure (SMILES)
< 5 µM	< 100 nM	< 100 nM	< 100 nM	< 100 nM	< 5 µM	CC(=O)NC1CC(N2CCOc3c(Cl)c(-c4ccc(F)c5sc(N)c(C#N)c45)c(F)c4nc(OC[C@@]56CCCN5C[C@H](F)C6)nc2c34)C1 (stereo partly drawn) [Compound 623, N-(3-(9-(2-amino-3-cyano-7-fluorobenzo[b]thiophen-4-yl)-8-chloro-10-fluoro-2-(((2R,7aS)-2-fluorotetrahydro-1H-pyrrolizin-7a(5H)-yl)methoxy)-5,6-dihydro-4H-[1,4]oxazepino[5,6,7-de]quinazolin-4-yl)cyclobutyl)acetamide]
< 5 µM	< 100 nM	< 100 nM	< 100 nM	< 100 nM	< 5 µM	N#Cc1c(N)sc2c(F)ccc(-c3c(Cl)c4c5c(nc(OC[C@@]67CCCN6C[C@H](F)C7)nc5c3F)N(C3CCOC3)CCCO4)c12 (stereo partly drawn) [Compound 1205, 2-amino-4-(9-chloro-11-fluoro-2-(((2R,7aS)-2-fluorotetrahydro-1H-pyrrolizin-7a(5H)-yl)methoxy)-4-(tetrahydrofuran-3-yl)-4,5,6,7-tetrahydro-[1,5]oxazocino[4,3,2-de]quinazolin-10-yl)-7-fluorobenzo[b]thiophene-3-carbonitrile]
< 5 µM	< 100 nM	< 100 nM	< 100 nM	< 100 nM	< 5 µM	N#Cc1c(N)sc2c(F)ccc(-c3c(Cl)c4c5c(nc(OC[C@@]67CCCN6C[C@H](F)C7)nc5c3F)N(C3CCOCC3)CCO4)c12 [Compound 813, 2-amino-4-(8-chloro-10-fluoro-2-(((2R,7aS)-2-fluorotetrahydro-1H-pyrrolizin-7a(5H)-yl)methoxy)-4-(tetrahydro-2H-pyran-4-yl)-5,6-dihydro-4H-[1,4]oxazepino[5,6,7-de]quinazolin-9-yl)-7-fluorobenzo[b]thiophene-3-carbonitrile]
< 5 µM		< 100 nM	< 100 nM	< 100 nM	< 5 µM	N#Cc1c(N)sc2c(F)ccc(-c3c(Cl)c4c5c(nc(OC[C@@]67CCCN6C[C@H](F)C7)nc5c3F)N(C3CC(NC(=O)C(F)Cl)C3)CCO4)c12 (stereo partly drawn) [Compound 724, N-(3-(9-(2-amino-3-cyano-7-fluorobenzo[b]thiophen-4-yl)-8-chloro-10-fluoro-2-(((2R,7aS)-2-fluorotetrahydro-1H-pyrrolizin-7a(5H)-yl)methoxy)-5,6-dihydro-4H-[1,4]oxazepino[5,6,7-de]quinazolin-4-yl)cyclobutyl)-2-chloro-2-fluoroacetamide]
< 5 µM	< 100 nM		< 100 nM	< 100 nM	< 5 µM	CCC1CC(N2CCOc3c(Cl)c(-c4ccc(F)c5sc(N)c(C#N)c45)c(F)c4nc(OC[C@@]56CCCN5C[C@H](F)C6)nc2c34)CCO1 (stereo partly drawn) [Compound 903, 2-amino-4-(8-chloro-4-(2-ethyltetrahydro-2H-pyran-4-yl)-10-fluoro-2-(((2R,7aS)-2-fluorotetrahydro-1H-pyrrolizin-7a(5H)-yl)methoxy)-5,6-dihydro-4H-[1,4]oxazepino[5,6,7-de]quinazolin-9-yl)-7-fluorobenzo[b]thiophene-3-carbonitrile]
< 5 µM	< 100 nM		< 100 nM	< 100 nM	< 5 µM	N#Cc1c(N)sc2c(F)ccc(-c3c(Cl)c4c5c(nc(OC[C@@]67CCCN6C[C@H](F)C7)nc5c3F)N(C3CCC(=C(F)F)C3)CCO4)c12 (stereo partly drawn) [Compound 605, 2-amino-4-(8-chloro-4-(3-(difluoromethylene)cyclopentyl)-10-fluoro-2-(((2R,7aS)-2-fluorotetrahydro-1H-pyrrolizin-7a(5H)-yl)methoxy)-5,6-dihydro-4H-[1,4]oxazepino[5,6,7-de]quinazolin-9-yl)-7-fluorobenzo[b]thiophene-3-carbonitrile]
